Assay results reported in ChEMBL document CHEMBL1671629, “Penetration of chlorhexidine into human skin” (Antimicrob Agents Chemother, 2008).

Tests used:
Format in all cases: ADME, tissue-based
[1] = tested on: Zone of skin; assay: Drug permeation in top 100 micrometer sections of human skin using Franz-cell skin model assessed as compound penetration per mg tissue exposed to 2% wt/vol of compound administered topically measured after 30 mins exposure by HPLC; details: 0.5 h
[2] = tested on: Zone of skin; assay: Drug permeation in top 100 micrometer sections of human skin using Franz-cell skin model assessed as compound penetration per mg tissue exposed to 2% wt/vol of compound administered topically measured after 2 mins exposure by HPLC
[3] = tested on: Zone of skin; assay: Drug permeation in deeper <300 micrometer sections of human skin using Franz-cell skin model assessed as compound penetration per mg tissue exposed to 2% wt/vol of compound administered topically measured after 24 hrs exposure by HPLC
[4] = tested on: Zone of skin; assay: Drug permeation in top 100 micrometer sections of human skin using Franz-cell skin model assessed as compound penetration per mg tissue exposed to 2% wt/vol of compound administered topically measured after 24 hrs exposure by HPLC
[5] = tested on: Zone of skin; assay: Drug permeation in deeper <300 micrometer sections of human skin using Franz-cell skin model assessed as compound penetration per mg tissue exposed to 2% wt/vol of compound administered topically measured after 30 mins exposure by HPLC; details: 0.5 h
[6] = tested on: Zone of skin; assay: Drug permeation in deeper <300 micrometer sections of human skin using Franz-cell skin model assessed as compound penetration per mg tissue exposed to 2% wt/vol of compound administered topically measured after 2 mins exposure by HPLC

tissue concentration [1]: 0.077 µg/mg
tissue concentration [2]: 0.157 µg/mg
Drug uptake [3]: < 1 µg
tissue concentration [4]: 7.88 µg/mg
Drug uptake [5]: < 0.002 µg
Drug uptake [6]: < 0.002 µg
Compound: N=C(NCCCCCCNC(=N)NC(=N)Nc1ccc(Cl)cc1)NC(=N)Nc1ccc(Cl)cc1.O=C(O)[C@H](O)[C@@H](O)[C@H](O)[C@H](O)CO
